Measurements reported in patent publication US6358885B1, “Substituted phenylheterocyclic herbicides” (Mississippi State University, priority 1992, dated 2002).

How the values were obtained:
Test in all cases: Test B preemergence/postemergence greenhouse plant response rating 0 to 10
[1] = system: sorghum; type: in vivo, Sorghum bicolor; conditions: for Plant response rating, Sorghum: 0 to 10 scale
How it was run: (§1)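 Planted seeds are treated preemergence with compound dissolved in a non-phytotoxic solvent, while postemergence applications go onto plants of two to eighteen cm. Plants stay in the greenhouse twelve to sixteen days and are then rated visually relative to controls.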

[2] = system: barley; type: in vivo, Hordeum vulgare; conditions: for Plant response rating, Barley: 0 to 10 scale
How it was run: as §1

[3] = system: wild buckwheat; type: in vivo, Polygonum convolvulus; conditions: for Plant response rating, Wild buckwheat: 0 to 10 scale
How it was run: as §1

[4] = system: velvetleaf; type: in vivo, Abutilon theophrasti; conditions: for Plant response rating, Velvetleaf: 0 to 10 scale
How it was run: as §1

[5] = system: cotton; type: in vivo, Gossypium hirsutum; conditions: for Plant response rating, Cotton: 0 to 10 scale
How it was run: as §1

[6] = system: giant foxtail; type: in vivo, Setaria faberii; conditions: for Plant response rating, Giant foxtail: 0 to 10 scale
How it was run: as §1

[7] = system: sugar beet; type: in vivo, Beta vulgaris; conditions: for Plant response rating, Sugar beet: 0 to 10 scale
How it was run: as §1

[8] = system: chickweed; type: in vivo, Stellaria media; conditions: for Plant response rating, Chickweed: 0 to 10 scale
How it was run: as §1

[9] = system: purple nutsedge; type: in vivo, Cyperus rotundus; conditions: for Plant response rating, Nutsedge: 0 to 10 scale
How it was run: as §1

[10] = system: wheat; type: in vivo, Triticum aestivum; conditions: for Plant response rating, Wheat: 0 to 10 scale
How it was run: as §1

[11] = system: blackgrass; type: in vivo, Alopecurus myosuroides; conditions: for Plant response rating, Blackgrass: 0 to 10 scale
How it was run: as §1

[12] = system: morningglory; type: in vivo, Ipomoea hederacea; conditions: for Plant response rating, Morningglory: 0 to 10 scale
How it was run: as §1

[13] = system: barnyardgrass; type: in vivo, Echinochloa crus-galli; conditions: for Plant response rating, Barnyardgrass: 0 to 10 scale
How it was run: as §1

[14] = system: lambsquarters; type: in vivo, Chenopodium album; conditions: for Plant response rating, Lambsquarter: 0 to 10 scale
How it was run: as §1

[15] = system: crabgrass; type: in vivo, Digitaria spp.; conditions: for Plant response rating, Crabgrass: 0 to 10 scale
How it was run: as §1

[16] = system: bedstraw; type: in vivo, Galium aparine; conditions: for Plant response rating, Bedstraw: 0 to 10 scale
How it was run: as §1

[17] = system: rice; type: in vivo, Oryza sativa; conditions: for Plant response rating, Rice: 0 to 10 scale
How it was run: as §1

[18] = system: cheatgrass; type: in vivo, Bromus secalinus; conditions: for Plant response rating, Cheatgrass: 0 to 10 scale
How it was run: as §1

[19] = system: corn; type: in vivo, Zea mays; conditions: for Plant response rating, Corn: 0 to 10 scale
How it was run: as §1

[20] = system: rape; type: in vivo, Brassica napus; conditions: for Plant response rating, Rape: 0 to 10 scale
How it was run: as §1

[21] = system: wild oat; type: in vivo, Avena fatua; conditions: for Plant response rating, Wild oat: 0 to 10 scale
How it was run: as §1

[22] = system: cocklebur; type: in vivo, Xanthium pensylvanicum; conditions: for Plant response rating, Cocklebur: Rate 50 g/ha, 0 to 10 scale
How it was run: as §1

[23] = system: soybean; type: in vivo, Glycine max; conditions: for Plant response rating, Soybean: 0 to 10 scale
How it was run: as §1

FCCCOc1cc(-c2nn3c(c2Cl)CCCC3)c(F)cc1Cl [Compound 79]
Plant response rating, Sorghum ([1]; POSTEMERGENCE, Rate 50 g/ha): 6
Plant response rating, Sorghum ([1]; PREEMERGENCE, Rate 50 g/ha): 0
Plant response rating (0 to 10 scale), Sorghum ([1]; PREEMERGENCE, Rate 200 g/ha): 0
Plant response rating, Sorghum ([1]; Rate 200 g/ha, POSTEMERGENCE): 7
Plant response rating, Barley ([2]; POSTEMERGENCE, Rate 50 g/ha): 4
Plant response rating, Barley ([2]; PREEMERGENCE, Rate 50 g/ha): 0
Plant response rating (0 to 10 scale), Barley ([2]; PREEMERGENCE, Rate 200 g/ha): 2
Plant response rating, Barley ([2]; Rate 200 g/ha, POSTEMERGENCE): 4
Plant response rating, Wild buckwheat ([3]; POSTEMERGENCE, Rate 50 g/ha): 10
Plant response rating, Wild buckwheat ([3]; PREEMERGENCE, Rate 50 g/ha): 0
Plant response rating (0 to 10 scale), Wild buckwheat ([3]; PREEMERGENCE, Rate 200 g/ha): 9
Plant response rating, Wild buckwheat ([3]; Rate 200 g/ha, POSTEMERGENCE): 10
Plant response rating, Velvetleaf ([4]; POSTEMERGENCE, Rate 50 g/ha): 8
Plant response rating, Velvetleaf ([4]; PREEMERGENCE, Rate 50 g/ha): 5
Plant response rating (0 to 10 scale), Velvetleaf ([4]; PREEMERGENCE, Rate 200 g/ha): 10
Plant response rating, Velvetleaf ([4]; Rate 200 g/ha, POSTEMERGENCE): 10
Plant response rating, Cotton ([5]; POSTEMERGENCE, Rate 50 g/ha): 10
Plant response rating, Cotton ([5]; PREEMERGENCE, Rate 50 g/ha): 0
Plant response rating (0 to 10 scale), Cotton ([5]; PREEMERGENCE, Rate 200 g/ha): 0
Plant response rating, Cotton ([5]; Rate 200 g/ha, POSTEMERGENCE): 10
Plant response rating, Giant foxtail ([6]; POSTEMERGENCE, Rate 50 g/ha): 4
Plant response rating, Giant foxtail ([6]; PREEMERGENCE, Rate 50 g/ha): 3
Plant response rating (0 to 10 scale), Giant foxtail ([6]; PREEMERGENCE, Rate 200 g/ha): 9
Plant response rating, Giant foxtail ([6]; Rate 200 g/ha, POSTEMERGENCE): 6
Plant response rating, Sugar beet ([7]; POSTEMERGENCE, Rate 50 g/ha): 10
Plant response rating, Sugar beet ([7]; PREEMERGENCE, Rate 50 g/ha): 9
Plant response rating (0 to 10 scale), Sugar beet ([7]; PREEMERGENCE, Rate 200 g/ha): 10
Plant response rating, Sugar beet ([7]; Rate 200 g/ha, POSTEMERGENCE): 10
Plant response rating, Chickweed ([8]; POSTEMERGENCE, Rate 50 g/ha): 4
Plant response rating, Chickweed ([8]; PREEMERGENCE, Rate 50 g/ha): 0
Plant response rating (0 to 10 scale), Chickweed ([8]; PREEMERGENCE, Rate 200 g/ha): 3
Plant response rating, Chickweed ([8]; Rate 200 g/ha, POSTEMERGENCE): 5
Plant response rating, Nutsedge ([9]; POSTEMERGENCE, Rate 50 g/ha): 0
Plant response rating, Nutsedge ([9]; PREEMERGENCE, Rate 50 g/ha): 0
Plant response rating (0 to 10 scale), Nutsedge ([9]; PREEMERGENCE, Rate 200 g/ha): 0
Plant response rating, Nutsedge ([9]; Rate 200 g/ha, POSTEMERGENCE): 0
Plant response rating, Wheat ([10]; POSTEMERGENCE, Rate 50 g/ha): 5
Plant response rating, Wheat ([10]; PREEMERGENCE, Rate 50 g/ha): 0
Plant response rating (0 to 10 scale), Wheat ([10]; PREEMERGENCE, Rate 200 g/ha): 2
Plant response rating, Wheat ([10]; Rate 200 g/ha, POSTEMERGENCE): 6
Plant response rating, Blackgrass ([11]; POSTEMERGENCE, Rate 50 g/ha): 3
Plant response rating, Blackgrass ([11]; PREEMERGENCE, Rate 50 g/ha): 1
Plant response rating (0 to 10 scale), Blackgrass ([11]; PREEMERGENCE, Rate 200 g/ha): 5
Plant response rating, Blackgrass ([11]; Rate 200 g/ha, POSTEMERGENCE): 5
Plant response rating, Morningglory ([12]; POSTEMERGENCE, Rate 50 g/ha): 10
Plant response rating, Morningglory ([12]; PREEMERGENCE, Rate 50 g/ha): 0
Plant response rating (0 to 10 scale), Morningglory ([12]; PREEMERGENCE, Rate 200 g/ha): 7
Plant response rating, Morningglory ([12]; Rate 200 g/ha, POSTEMERGENCE): 10
Plant response rating, Barnyardgrass ([13]; POSTEMERGENCE, Rate 50 g/ha): 4
Plant response rating, Barnyardgrass ([13]; PREEMERGENCE, Rate 50 g/ha): 3
Plant response rating (0 to 10 scale), Barnyardgrass ([13]; PREEMERGENCE, Rate 200 g/ha): 6
Plant response rating, Barnyardgrass ([13]; Rate 200 g/ha, POSTEMERGENCE): 7
Plant response rating, Lambsquarter ([14]; POSTEMERGENCE, Rate 50 g/ha): 9
Plant response rating, Lambsquarter ([14]; PREEMERGENCE, Rate 50 g/ha): 9
Plant response rating (0 to 10 scale), Lambsquarter ([14]; PREEMERGENCE, Rate 200 g/ha): 10
Plant response rating, Lambsquarter ([14]; Rate 200 g/ha, POSTEMERGENCE): 10
Plant response rating, Crabgrass ([15]; POSTEMERGENCE, Rate 50 g/ha): 3
Plant response rating, Crabgrass ([15]; PREEMERGENCE, Rate 50 g/ha): 4
Plant response rating (0 to 10 scale), Crabgrass ([15]; PREEMERGENCE, Rate 200 g/ha): 6
Plant response rating, Crabgrass ([15]; Rate 200 g/ha, POSTEMERGENCE): 5
Plant response rating, Bedstraw ([16]; POSTEMERGENCE, Rate 50 g/ha): 5
Plant response rating, Bedstraw ([16]; PREEMERGENCE, Rate 50 g/ha): 2
Plant response rating (0 to 10 scale), Bedstraw ([16]; PREEMERGENCE, Rate 200 g/ha): 7
Plant response rating, Bedstraw ([16]; Rate 200 g/ha, POSTEMERGENCE): 7
Plant response rating, Rice ([17]; POSTEMERGENCE, Rate 50 g/ha): 5
Plant response rating, Rice ([17]; PREEMERGENCE, Rate 50 g/ha): 0
Plant response rating (0 to 10 scale), Rice ([17]; PREEMERGENCE, Rate 200 g/ha): 0
Plant response rating, Rice ([17]; Rate 200 g/ha, POSTEMERGENCE): 6
Plant response rating, Cheatgrass ([18]; POSTEMERGENCE, Rate 50 g/ha): 3
Plant response rating, Cheatgrass ([18]; PREEMERGENCE, Rate 50 g/ha): 2
Plant response rating (0 to 10 scale), Cheatgrass ([18]; PREEMERGENCE, Rate 200 g/ha): 4
Plant response rating, Cheatgrass ([18]; Rate 200 g/ha, POSTEMERGENCE): 4
Plant response rating, Corn ([19]; POSTEMERGENCE, Rate 50 g/ha): 3
Plant response rating, Corn ([19]; PREEMERGENCE, Rate 50 g/ha): 0
Plant response rating (0 to 10 scale), Corn ([19]; PREEMERGENCE, Rate 200 g/ha): 0
Plant response rating, Corn ([19]; Rate 200 g/ha, POSTEMERGENCE): 5
Plant response rating, Rape ([20]; POSTEMERGENCE, Rate 50 g/ha): 8
Plant response rating, Rape ([20]; PREEMERGENCE, Rate 50 g/ha): 3
Plant response rating (0 to 10 scale), Rape ([20]; PREEMERGENCE, Rate 200 g/ha): 6
Plant response rating, Rape ([20]; Rate 200 g/ha, POSTEMERGENCE): 9
Plant response rating, Wild oat ([21]; POSTEMERGENCE, Rate 50 g/ha): 4
Plant response rating, Wild oat ([21]; PREEMERGENCE, Rate 50 g/ha): 3
Plant response rating (0 to 10 scale), Wild oat ([21]; PREEMERGENCE, Rate 200 g/ha): 6
Plant response rating, Wild oat ([21]; Rate 200 g/ha, POSTEMERGENCE): 5
Plant response rating, Cocklebur ([22]; POSTEMERGENCE): 8
Plant response rating, Cocklebur ([22]; PREEMERGENCE): 0
Plant response rating (0 to 10 scale), Cocklebur ([22]; PREEMERGENCE, Rate 200 g/ha): 6
Plant response rating, Soybean ([23]; POSTEMERGENCE, Rate 50 g/ha): 7
Plant response rating, Soybean ([23]; PREEMERGENCE, Rate 50 g/ha): 0
Plant response rating (0 to 10 scale), Soybean ([23]; PREEMERGENCE, Rate 200 g/ha): 0
Plant response rating, Soybean ([23]; Rate 200 g/ha, POSTEMERGENCE): 8
